Some test systems named below: NCI-H23 lung; SF-268 CNS; UO-31 renal; DU-145 prostate; SW-620 colon; MDA-N; HCT-15 colon; NCI/ADR-RES ovarian; MALME-3M melanoma; A498 renal.
Holding throughout (test): DTP human tumour cell line panel, 48 h

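Protocol summary: plate cells (96-well), add compound at 5 concentrations, incubate 48 h, interpolate endpoints linearly. At the TGI there is no net growth.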

In the case of `CNC(=S)N1CCN(C(C)=O)C1=S`, the concentration for total growth inhibition (TGI) in the assay with NCI-H23 lung, in the assay on SF-268 CNS, in the assay on UO-31 renal, in the assay with DU-145 prostate, with SW-620 colon and with MDA-N was more than 100 µM each time. The TGI is more than 100 µM in the assay with HCT-15 colon, more than 100 µM with NCI/ADR-RES ovarian, 43.2 µM in the assay with MALME-3M melanoma and more than 100 µM in the assay on A498 renal.
